Measured values published in patent US12370170B2, “Composition comprising naphthoquinone-based compound as active ingredient, for preventing or ameliorating fatigue, cachexia, pain, cognitive decline and hematopoietic stem cell reduction which are side effects related to anticancer drug treatment” (NADIANBIO LTD., priority 2016, dated 2025).

Tests used:
Type in all cases: in vivo, C57BL/6 mice
[1] = test system: inflammatory cytokines TNF-α, IL-1β, IL-6 and IL-17; assay: Plasma inflammatory cytokines by ELISA in adriamycin animal model; conditions: adriamycin 4 mg/kg/day i.p. ×3; compound 20 mg/kg oral daily from 3 days before; 4 days after final adriamycin; vs adriamycin group
Protocol: (§1) In this invention, 11 weeks old C57BL/6 mice were used. All the mice used in the experiments of the invention were raised in an aseptic animal room at the temperature of 22˜26 L with the humidity of 55˜60%. The mice were allowed to take general solid feed (SAMTACO Co., Ltd., Korea) and water freely. The mice were adapted for 1 week before the experiment. All the experiments were performed after obtaining approval from the clinical trial management committee in accordance with the laboratory animal care and ethics regulations of Wonkwang University. The mouse animal model of the present invention was treated with different anticancer drugs. […]
Particularly, plasma was isolated from the adriamycin animal model prepared by the same manner as described in Example 4, and the inflammatory cytokines TNF-α (R&D Systems, MTA00B), IL-1β (R&D Systems, MLB00C), IL-6 (R&D Systems, M6000B) and IL-17 (R&D Systems, M1700) were analyzed by ELISA (enzyme-linked immunosorbent assay).
To investigate the regulatory effect of β-lapachone on adriamycin induced inflammatory cytokines, plasma was isolated from the adriamycin animal model prepared by the same manner as described in Example 4, and the inflammatory cytokines TNF-α, IL-1β, IL-6 and IL-17 were analyzed by ELISA.

[2] = test system: inflammatory cytokines TNF-α, IL-1β, IL-6 and IL-17; assay: Plasma inflammatory cytokines by ELISA in gemcitabine (500 mg/kg) animal model; conditions: gemcitabine 500 mg/kg i.p. once; dunnione 20 mg/kg oral daily from 3 days before; 2 days after gemcitabine; vs gemcitabine group
Protocol: as §1, with “drugs. Particularly, one kind of anticancer drug was administered intraperitoneally one time or more, or several kinds of anticancer drugs were administered once or more times or at different concentrations, leading to the establishment of the animal model of the invention.” for “drugs.”
Plasma was isolated from the gemcitabine animal model prepared by the same manner as described in Example 5, and the inflammatory cytokines TNF-α, IL-1β, IL-6 and IL-17 were analyzed by ELISA.

[3] = test system: bone marrow cells and hematopoietic stem/progenitor cells; assay: Bone marrow hematopoietic stem cell reduction by flow cytometry, 3×ACP animal model; conditions: 2 days after ACP
Protocol: (§2) In this invention, 11 weeks old C57BL/6 mice were used. All the mice used in the experiments of the invention were raised in an aseptic animal room at the temperature of 22˜26 L with the humidity of 55˜60%. The mice were allowed to take general solid feed (SAMTACO Co., Ltd., Korea) and water freely. The mice were adapted for 1 week before the experiment. All the experiments were performed after obtaining approval from the clinical trial management committee in accordance with the laboratory animal care and ethics regulations of Wonkwang University. The mouse animal model of the present invention was treated with different anticancer drugs. Particularly, one kind of anticancer drug was administered intraperitoneally one time or more, or several kinds of anticancer drugs were administered once or more times or at different concentrations, leading to the establishment of the animal model of the invention. In the adriamycin-induced animal model, the mice were divided into 6 groups as follows: the control group administered with PBS (Control, 5 mice), the group administered intraperitoneally with adriamycin (4 mg/kg/day) 3 times (ADR, 5 mice), the group administered orally with dunnione or β-lapachone from 3 days before the adriamycin treatment daily (20 mg/kg, 5 mice), and the group administered with dunnione or β-lapachone (20 mg/kg, 5 mice). 4 days after the final adriamycin treatment, analysis of the mice was performed.
In the 3×ACP induced animal model for the analysis of bone marrow hematopoietic stem cell protective effect, the mice were divided into 4 groups as follows: the control group administered with PBS (Control, 4 mice), the group administered intraperitoneally with 3×ACP once (3×ACP, 4 mice), the group administered orally with dunnione from 3 days before the 3×ACP treatment daily (20 mg/kg, 4 mice), and the group administered with dunnione (20 mg/kg, 4 mice). 2 days after the ACP treatment, analysis of the mice was performed. […]
As a result, as shown in FIG. 9 presenting the results of flow cytometry for the quantitative analysis of bone marrow hematopoietic cells, the region where lineage negative cells were distributed was gated. […] Next, hematopoietic stem cells and multipotent progenitor cells were separated and analyzed, leading to the analysis of multipotent progenitor cell-4 (MPP4) and hematopoietic stem cell/progenitor cell (HSPC). With the hematopoietic stem cell/progenitor cell group, long-term hematopoietic stem cells (HSC^LT), short-term hematopoietic stem cells (HSC^ST), and multipotent progenitor cell-2 and -3 (MPP2 and MPP3) were analyzed. In FIG. 9, the results of flow cytometry analyzed for each group are presented. […]

[4] = test system: TNF-α; assay: TNF-α expression in femur by immunohistostaining, 4×ACP animal model; conditions: dunnione 80 mg/kg oral
Protocol: as §2, with “4 days after the final adriamycin treatment, analysis of the mice was performed.” left out

[5] = test system: MAFbx, MuRF1 and Bnip3 mRNAs; assay: Muscle loss related gene expression in cyclophosphamide induced animal model; conditions: cyclophosphamide 350 mg/kg total; dunnione 20 mg/kg oral; vs cyclophosphamide group

## CC1OC2=C(C(=O)C(=O)c3ccccc32)C1(C)C (centres unmarked) [dunnione, 2,3-dihydro-2,3,3-trimethyl naphtho [1,2-b]furan-4,5-dione]
[1]
  level of inflammatory cytokines (TNF-α, IL-1β, IL-6, IL-17) in plasma: significantly reduced
[2]
  level of inflammatory cytokines (TNF-α, IL-1β, IL-6, IL-17) in plasma: significantly reduced
[3]; 3×ACP + dunnione 20 mg/kg oral daily from 3 days before
  total bone marrow cell number, increase relative to the group treated with the anticancer drugs: at least three times
[3]; 3×ACP + dunnione 20 mg/kg oral
  number of hematopoietic stem cell/progenitor cell, increase by dunnione: as much as three times
  number of long-term hematopoietic stem cells (HSC^LT), increase relative to the group treated with the anticancer drugs: at least 2 times
  number of short-term hematopoietic stem cells (HSC^ST), increase relative to the group treated with the anticancer drugs: ≥ 8 times
[4]
  up-regulation of TNF-α in the bone (femur): significantly suppressed
[5]
  expressions of MAFbx, MuRF1 and Bnip3 mRNAs in muscle: significantly reduced
